Patent US12692302B2, “Uses of IL-13 antagonists for treating atopic dermatitis” (Genentech, Inc., priority 2016, dated 2026)

Tested on: patients with persistent moderate to severe atopic dermatitis inadequately controlled by TCS
Experiment: Clinical Study I (phase II, lebrikizumab + TCS vs placebo + TCS): efficacy outcomes
Type: in vivo, human
Conditions: for Mean % Change in % BSA Affected / Mean % Change in EASI / Mean % Change in Pruritus VAS / Mean % Change in SCORAD / Mean % Change in Sleep VAS / Mean Absolute Change in IGA: screening to baseline (2-week TCS run-in, before study drug)
Method: Clinical Study I was a phase II, randomized, double-blind, placebo-controlled study to evaluate the safety and efficacy of lebrikizumab in patients (age 18-75) with persistent moderate to severe atopic dermatitis that is inadequately controlled by topical corticosteroids (TCS). In this Study, lebrikizumab was tested in combination with TCS.
The inclusion criteria included the following: age 18 to 75 years; AD diagnosed by the Hanifin/Rajka criteria and that had been present for at least 1 year at screening; moderate to severe AD as graded by the Rajka/Langeland criteria at screening; history of inadequate response to a 1 month (within the 3 months prior to the screening visit) treatment regimen of at least daily TCS and regular emollient for treatment of AD; EASI score 14 at screening and end of the run-in period (Visit 3), IGA score 3 (5-point scale) at screening and end of the run-in period (Visit 3); AD involvement of 10% body surface area (BSA) at screening; and Pruritus VAS score (measured as part of the SCORAD) of 3 at screening.
Run-in Period. Following the screening visit, eligible patients entered a 2-week run-in period (Days −14 to −1) during which a protocol-specified topical therapy regimen was initiated. On the first day of the run-in period (Day −14) patients received TCS for use throughout the run-in period. Patients were required to apply the following topical therapy regimen daily: emollient to all xerotic skin surfaces, at least once daily; TCS cream consisting of medium potency TCS (triamcinolone acetonide 0.1%), two times per day, only to all active skin lesions.
Treatment Period. […] The plan was to randomize approximately 200 patients (1:1:1:1) to one of the following four treatment groups (see FIG. 1): (1) Group 1: lebrikizumab 250 mg administered subcutaneously (SC) single dose (Day 1) followed by 2 placebo doses (at Week 4 and at Week 8) for a total of 3 doses+TCS cream; (2) Group 2: lebrikizumab 125 mg SC single dose (Day 1) followed by 2 placebo doses (Week 4 and Week 8) for a total of 3 doses+TCS cream; (3) Group 3: lebrikizumab 125 mg SC every 4 weeks (Q4W) for a total of 3 doses+TCS cream; and (4) Group 4: placebo SC Q4W for a total of 3 doses+TCS cream. Three active doses were included to characterize both exposure-response relationships and dosing frequency requirements.
Patients randomized to these four study treatment groups received study drug (lebrikizumab or placebo SC) in combination with TCS. Throughout the 12-week treatment period these patients continued to apply emollient at least once daily and triamcinolone acetonide 0.1% cream as described in the run-in period (two times per day to all active skin lesions on the body). […] Patients recorded their use of topical creams and responded to PRO-related questions using a hand held eDiary throughout the treatment period. At each study visit the patient was required to bring their TCS containers to the study site to be weighed.
Efficacy Outcome Measures. The primary efficacy outcome measure was the percentage of patients achieving EASI-50 (a 50% reduction in EASI score from baseline) at Week 12. […]

[1] = 125 mg single dose + TCS BID (n = 52), Week 12
[2] = 250 mg single dose + TCS BID (n = 53), Week 12

lebrikizumab: monoclonal humanized anti-IL-13 IgG4 antibody; heavy chain SEQ ID NO: 11, light chain SEQ ID NO: 12; formulated at 125 mg/mL in prefilled syringe
% change from baseline in ADIQ, placebo-corrected change [1]: −4.9%
% change from baseline in Pruritus VAS (from SCORAD), mean [1]: −34.92%
% change from baseline in Pruritus VAS (from SCORAD), placebo-corrected change [1]: −7.38%
% change from baseline in Sleep Loss VAS (from SCORAD), mean [1]: −53.1%
% change from baseline in Sleep Loss VAS (from SCORAD), placebo-corrected change [1]: −30.6%
DLQI, % change from baseline, adjusted mean [1]: −34.33%
DLQI, % change from baseline, Δ vs placebo [1]: −0.76%
SCORAD score % change from baseline, adjusted mean [1]: −38.7%
SCORAD score % change from baseline, Δ vs placebo [1]: −3.3%
Total % BSA affected, % change from baseline, adjusted mean [1]: −45.2%
Total % BSA affected, % change from baseline, Δ vs placebo [1]: 2.2%
Change from baseline Pruritus VAS, mean % change (250 mg SD + TCS, Week 20): −30.25%
Change from baseline Pruritus VAS, placebo-corrected differences (250 mg SD + TCS, Week 20): −8.79%
Change from baseline in EASI, mean % change (250 mg SD + TCS, Week 20): −55.9%
Change from baseline in EASI, placebo-corrected differences (250 mg SD + TCS, Week 20): −1.88%
Change from baseline in the % BSA affected, mean % change (250 mg SD + TCS, Week 20): −46.4%
Change from baseline in the % BSA affected, placebo-corrected differences (250 mg SD + TCS, Week 20): 5.56%
Patients maintaining EASI-50 response at Weeks 12 and 20, % (250 mg SD + TCS, Week 20): (78.4) %
Patients maintaining EASI-50 response at Weeks 12 and 20, placebo-corrected differences (250 mg SD + TCS, Week 20): 5.65%
Patients maintaining EASI-75 response at Weeks 12 and 20, % (250 mg SD + TCS, Week 20): (61.5) %
Patients maintaining EASI-75 response at Weeks 12 and 20, placebo-corrected differences (250 mg SD + TCS, Week 20): −5.13%
Patients maintaining IGA 0/1 response at Weeks 12 and 20, % (250 mg SD + TCS, Week 20): (60.0) %
Patients maintaining IGA 0/1 response at Weeks 12 and 20, placebo-corrected differences (250 mg SD + TCS, Week 20): 0%
Patients maintaining SCORAD-50 response at Weeks 12 and 20, % (250 mg SD + TCS, Week 20): (64.0) %
Patients maintaining SCORAD-50 response at Weeks 12 and 20, placebo-corrected differences (250 mg SD + TCS, Week 20): −14.60%
% Patients achieving EASI-50 [2]: (69.8) %
% Patients achieving EASI-50, placebo-corrected changes [2]: 7.6%
% Patients achieving EASI-75 [2]: (49.1) %
% Patients achieving EASI-75, placebo-corrected changes [2]: 15.1%
% Patients achieving IGA 0/1 [2]: (28.3) %
% Patients achieving IGA 0/1, placebo-corrected change [2]: 9.4%
% Patients achieving SCORAD-50 [2]: 47.2%
% Patients achieving SCORAD-50, placebo-corrected change [2]: 20.8%
% Patients achieving SCORAD-75 [2]: (11.3) %
% change from baseline in AD Specific health-related QoL - ADIQ, mean [2]: −30.8%
% change from baseline in ADIQ, placebo-corrected change [2]: −1.8%
% change from baseline in Pruritus VAS (from SCORAD), mean [2]: −32.82%
% change from baseline in Pruritus VAS (from SCORAD), placebo-corrected change [2]: −5.28%
% change from baseline in Sleep Loss VAS (from SCORAD), mean [2]: −47.2%
% change from baseline in Sleep Loss VAS (from SCORAD), placebo-corrected change [2]: −24.6%
DLQI, % change from baseline, adjusted mean [2]: −40.67%
DLQI, % change from baseline, Δ vs placebo [2]: −7.09%
SCORAD score % change from baseline, adjusted mean [2]: −42.6%
SCORAD score % change from baseline, Δ vs placebo [2]: −7.2%
Total % BSA affected, % change from baseline, adjusted mean [2]: −38.6%
Total % BSA affected, % change from baseline, Δ vs placebo [2]: 8.8%
% Patients achieving SCORAD-50 (250 mg single dose + TCS BID (n = 53), Week 12, listed as Lebri): (47.2) %
Mean % Change in % BSA Affected (125 mg Q4W group (n = 51)): −9.3%
Mean % Change in EASI (125 mg Q4W group (n = 51)): −9.1%
Mean % Change in Pruritus VAS (125 mg Q4W group (n = 51)): −15.2%
Mean % Change in SCORAD (125 mg Q4W group (n = 51)): −7.7%
Mean % Change in Sleep VAS (125 mg Q4W group (n = 51)): −12.9%
Mean Absolute Change in IGA (125 mg Q4W group (n = 51)): −0.14
Mean % Change in % BSA Affected (125 mg SD group (n = 52)): −17.1%
Mean % Change in EASI (125 mg SD group (n = 52)): −14.3%
Mean % Change in Pruritus VAS (125 mg SD group (n = 52)): −23.8%
Mean % Change in SCORAD (125 mg SD group (n = 52)): −12.2%
Mean % Change in Sleep VAS (125 mg SD group (n = 52)): −29.0%
Mean Absolute Change in IGA (125 mg SD group (n = 52)): −0.21
Mean % Change in % BSA Affected (250 mg SD group (n = 53)): −4.3%
Mean % Change in EASI (250 mg SD group (n = 53)): −10.2%
Mean % Change in Pruritus VAS (250 mg SD group (n = 53)): −15.5%
Mean % Change in SCORAD (250 mg SD group (n = 53)): −9.9%
Mean % Change in Sleep VAS (250 mg SD group (n = 53)): −8.1%
Mean Absolute Change in IGA (250 mg SD group (n = 53)): −0.17
